Measurements taken from BindingDB's records for doi:10.1074/jbc.M110.206193 (Takeda Pharmaceutical, 2011).

Tests used:
[1] = target: Epidermal growth factor receptor (Homo sapiens, UniProt P00533); assay: Enzyme Assay; conditions: pH 7.5
Protocol: (§1) The EGFR, HER2 and HER4 kinase assay were performed using radiolabeled [gamma-32P] ATP from GE Healthcare.

[2] = target: Receptor tyrosine-protein kinase erbB-4 (Homo sapiens, UniProt Q15303); assay: Enzyme Assay; conditions: pH 7.5
Protocol: as §1

Sequence of Receptor tyrosine-protein kinase erbB-4 (Q15303 whole entry): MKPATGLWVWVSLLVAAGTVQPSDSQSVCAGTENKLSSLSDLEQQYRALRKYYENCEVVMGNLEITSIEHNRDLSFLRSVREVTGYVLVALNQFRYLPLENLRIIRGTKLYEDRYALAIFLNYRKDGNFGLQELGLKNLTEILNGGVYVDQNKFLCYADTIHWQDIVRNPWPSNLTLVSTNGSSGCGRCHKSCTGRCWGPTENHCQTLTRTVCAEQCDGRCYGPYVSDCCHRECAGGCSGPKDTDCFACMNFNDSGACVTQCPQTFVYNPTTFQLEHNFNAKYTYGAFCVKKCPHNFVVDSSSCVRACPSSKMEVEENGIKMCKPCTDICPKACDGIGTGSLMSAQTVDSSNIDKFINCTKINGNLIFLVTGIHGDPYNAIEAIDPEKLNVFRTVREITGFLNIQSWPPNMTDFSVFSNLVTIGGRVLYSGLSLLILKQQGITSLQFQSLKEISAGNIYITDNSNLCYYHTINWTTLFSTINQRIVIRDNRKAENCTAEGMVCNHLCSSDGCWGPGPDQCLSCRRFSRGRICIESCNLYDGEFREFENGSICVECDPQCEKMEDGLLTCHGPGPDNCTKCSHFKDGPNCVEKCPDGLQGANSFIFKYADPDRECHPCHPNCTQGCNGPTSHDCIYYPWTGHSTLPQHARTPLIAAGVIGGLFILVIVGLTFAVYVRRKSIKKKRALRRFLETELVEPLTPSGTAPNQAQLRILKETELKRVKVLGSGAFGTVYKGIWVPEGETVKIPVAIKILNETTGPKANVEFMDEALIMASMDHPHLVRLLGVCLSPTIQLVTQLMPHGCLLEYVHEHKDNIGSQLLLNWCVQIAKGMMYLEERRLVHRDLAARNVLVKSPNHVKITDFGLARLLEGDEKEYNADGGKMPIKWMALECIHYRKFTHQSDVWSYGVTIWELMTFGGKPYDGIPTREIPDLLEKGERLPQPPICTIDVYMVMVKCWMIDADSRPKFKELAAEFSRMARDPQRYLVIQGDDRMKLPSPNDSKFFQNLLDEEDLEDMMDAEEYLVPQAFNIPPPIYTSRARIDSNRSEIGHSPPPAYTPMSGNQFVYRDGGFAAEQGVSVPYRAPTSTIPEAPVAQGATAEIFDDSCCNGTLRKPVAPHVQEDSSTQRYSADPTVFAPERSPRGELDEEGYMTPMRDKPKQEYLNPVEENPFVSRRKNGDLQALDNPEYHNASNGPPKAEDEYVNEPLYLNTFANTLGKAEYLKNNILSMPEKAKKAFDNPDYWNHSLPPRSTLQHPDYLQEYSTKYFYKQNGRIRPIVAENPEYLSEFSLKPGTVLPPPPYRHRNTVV
Sequence of Epidermal growth factor receptor (P00533 whole entry): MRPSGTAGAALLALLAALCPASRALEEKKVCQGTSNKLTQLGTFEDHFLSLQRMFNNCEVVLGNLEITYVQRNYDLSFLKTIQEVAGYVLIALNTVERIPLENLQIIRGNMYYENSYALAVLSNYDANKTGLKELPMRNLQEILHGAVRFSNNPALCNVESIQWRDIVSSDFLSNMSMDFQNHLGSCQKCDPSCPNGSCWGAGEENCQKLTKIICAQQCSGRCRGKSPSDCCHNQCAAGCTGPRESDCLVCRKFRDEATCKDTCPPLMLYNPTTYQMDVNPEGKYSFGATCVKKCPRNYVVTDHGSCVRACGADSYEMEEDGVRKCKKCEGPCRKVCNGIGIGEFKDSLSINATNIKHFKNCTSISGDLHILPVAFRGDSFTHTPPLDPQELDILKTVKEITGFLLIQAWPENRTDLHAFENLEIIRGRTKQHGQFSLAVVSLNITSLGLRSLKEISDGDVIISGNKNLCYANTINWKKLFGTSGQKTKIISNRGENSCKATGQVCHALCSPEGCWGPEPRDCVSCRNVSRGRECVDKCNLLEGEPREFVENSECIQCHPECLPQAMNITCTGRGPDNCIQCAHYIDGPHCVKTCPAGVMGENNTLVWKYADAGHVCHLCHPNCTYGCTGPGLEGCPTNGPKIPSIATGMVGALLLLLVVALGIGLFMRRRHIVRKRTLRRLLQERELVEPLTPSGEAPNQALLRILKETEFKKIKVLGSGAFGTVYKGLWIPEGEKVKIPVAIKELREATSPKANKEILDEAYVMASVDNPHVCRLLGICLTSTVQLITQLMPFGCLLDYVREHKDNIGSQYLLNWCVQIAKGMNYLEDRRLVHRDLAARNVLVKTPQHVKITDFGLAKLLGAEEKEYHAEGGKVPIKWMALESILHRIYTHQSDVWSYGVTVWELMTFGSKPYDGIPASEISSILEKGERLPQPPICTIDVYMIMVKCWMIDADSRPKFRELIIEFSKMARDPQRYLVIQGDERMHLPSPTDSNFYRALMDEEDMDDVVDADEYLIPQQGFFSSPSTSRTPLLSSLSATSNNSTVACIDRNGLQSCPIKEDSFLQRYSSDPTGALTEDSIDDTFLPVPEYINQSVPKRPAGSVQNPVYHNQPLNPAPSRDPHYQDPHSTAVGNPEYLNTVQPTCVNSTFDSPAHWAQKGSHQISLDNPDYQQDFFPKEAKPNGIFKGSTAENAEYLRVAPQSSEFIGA

IC50 [1]: 429 nM
IC50 [2]: > 10000 nM
SMILES: OCCOCn1ccc2ncnc(Nc3cnc(Oc4cccc(C(F)(F)F)c4)c(Cl)c3)c21 [SYR127063]
